Experiment [1] relates to HL-60, human proleukemia cells. The experiment can be described thus: Cell-MTS proliferation assay, HL-60. The note with it: Cell-MTS, 168 hr, class symbols A/B/C. Format: cell-based. The method, then:
(§1) The Cell-MTS assay is a 7-day plate-based colorimetric assay which quantifies the amount of newly generated NADH in the presence or absence of test compound. The NADH level is used for the quantification of cancer cell proliferation.
(§2) Established cancer cell lines with a variety of driving mutations were obtained from American Type Culture Collection (ATCC) and routinely passaged according to ATCC protocols. For routine assay, these cells were seeded at densities which enabled ˜90% confluence after 7 days of culture. Raji, human Burkitts lymphoma cells, (cMYC) were seeded at 15,000 cells per 96-well. HL-60, human proleukemia cells, (NRAS, p16, p53, c-Myc amplified) were seeded at 5,000 cells per 96-well. NCI-H460, human non-small cell lung cancer cells, (KRAS, PIK3CA, STLK11, p16) were seeded at 3,000 cells per 96-well. 24 hr after plating, cells received an 11-point dilution of test compound with final concentration ranges from 100 μM to 2.0 nM. […] At the end of this incubation period, 80 μL of media is removed and 20 μL of CellTiter 96® AQueous Non-Radioactive Cell Proliferation Assay soln (Promega) was added. The cells were incubated until the OD490 was >0.6. IC50 values were calculated using the IDBS XLfit software package and include background subtracted OD490 values and normalization to DMSO controls. Cellular proliferation IC50 values were uploaded and archived using the Chem Biography Platform.
(Formazan colour is commonly taken as a measure of viable cells.)

The subject of experiment [2] is Raji, human Burkitts lymphoma cells. The experiment is described as follows: Cell-MTS proliferation assay, Raji. The class given is cell-based. The note with it: 168 hr. As for the experimental part: as §1, §2
A further experiment deals with BRD4(BD1) (Homo sapiens (Human), UniProt O60885). The experiment can be described thus: In vitro enzyme inhibition assay (BRD4 AlphaScreen). The class given is binding. The procedure, abridged:
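AlphaScreen proximity readout, using streptavidin donor and Ni-chelate acceptor beads at 5 μg/mL final, monitors biotin-H4 tetraacetylated peptide interaction with purified His-tagged BRD4.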
On the technique in general: Alpha assays give light when donor and acceptor beads are brought close together.

Where [3] appears, read: Homo sapiens, Raji, Cell-MTS, class symbols A/B/C.
Setting [4] is: Homo sapiens, Raji, Cell-MTS proliferation.
Where [5] appears, read: in vitro enzyme inhibition assay.
[6] abbreviates: Homo sapiens, Cell-MTS proliferation, Raji cells.

These results are taken from patent US10023592B2, “Bromodomain inhibitors” (Celgene Quanticel Research, Inc., priority 2013, dated 2018).

Each structure is given as a SMILES string.

`CCS(=O)(=O)Nc1cccc(-c2cn(C)c(=O)c3cc(F)ccc23)c1` [Example 62, N-[3-(7-fluoro-2-methyl-1-oxoisoquinolin-4-yl)phenyl]ethanesulfonamide]: the IC50 in experiment [1] (Homo sapiens, HL-60) is under 500 nM; in experiment [2] (setting [3]) it was 500 to 5000 nM; against BRD4(BD1) (class symbols A/B/C), under 500 nM.

For the molecule `Cn1cc(-c2cccc(NS(C)(=O)=O)c2)c2ccc(F)cc2c1=O` [Example 58, N-[3-(7-fluoro-2-methyl-1-oxoisoquinolin-4-yl)phenyl]methanesulfonamide], the IC50 in experiment [1] (Homo sapiens, HL-60) is under 500 nM; in experiment [2] (setting [3]), 500 to 5000 nM; at BRD4(BD1) (class symbols A/B/C), under 500 nM.

`Cn1cc(-c2cc(F)cc(NS(C)(=O)=O)c2)c2ccccc2c1=O` [Example 36, N-[3-fluoro-5-(2-methyl-1-oxoisoquinolin-4-yl)phenyl] methanesulfonamide]: the IC50 in experiment [1] (Homo sapiens, HL-60) is 500 to 5000 nM; in experiment [2] (setting [3]) it was 500 to 5000 nM; at BRD4(BD1) (class symbols A/B/C), 500 to 5000 nM.

Consider `Cc1ccc(NS(C)(=O)=O)cc1-c1cn(C)c(=O)c2ccccc12` [Example 39, N-[4-methyl-3-(2-methyl-1-oxoisoquinolin-4-yl)phenyl]methanesulfonamide], for which the IC50 is under 500 nM in experiment [1] (Homo sapiens, HL-60); 500 to 5000 nM in experiment [2] (setting [3]); under 500 nM on BRD4(BD1) (class symbols A/B/C).

As for `Cn1cc(-c2cccc(NS(C)(=O)=O)c2)c2cc(F)ccc2c1=O` [Example 47, N-[3-(6-fluoro-2-methyl-1-oxoisoquinolin-4-yl)phenyl]methanesulfonamide], the half-maximal inhibitory concentration (IC50) in experiment [1] (Homo sapiens, HL-60) was under 500 nM; in experiment [2] (setting [3]), under 500 nM; at BRD4(BD1) (class symbols A/B/C), under 500 nM.

`Cc1ccc(-c2cn(C)c(=O)c3ccccc23)cc1NS(C)(=O)=O` [Example 17, N-[2-methyl-5-(2-methyl-1-oxoisoquinolin-4-yl)phenyl] methanesulfonamide]: the IC50 in experiment [1] (Homo sapiens, HL-60) is under 500 nM; in experiment [2] (setting [3]) it was 500 to 5000 nM; against BRD4(BD1) (class symbols A/B/C), under 500 nM.

On to `COc1ccc(-c2cn(C)c(=O)c3ccccc23)cc1S(=O)(=O)NCc1ccccc1` [Example 15, N-benzyl-2-methoxy-5-(2-methyl-1-oxoisoquinolin-4-yl)benzenesulfonamide], for which the IC50 is 500 to 5000 nM in experiment [1] (Homo sapiens, HL-60); under 500 nM in experiment [2] (setting [3]); 500 to 5000 nM on BRD4(BD1) (class symbols A/B/C).

For the molecule `Cn1cc(-c2cccc(S(=O)(=O)N3CCCC3)c2)c2ccccc2c1=O` [Example 7, 2-methyl-4-(3-pyrrolidin-1-yl-sulfonylphenyl)isoquinolin-1-one], the IC50 was 500 to 5000 nM in experiment [1] (Homo sapiens, HL-60); under 500 nM in experiment [2] (setting [3]); 500 to 5000 nM against BRD4(BD1) (class symbols A/B/C).

For the molecule `Cn1cc(-c2cc(S(C)(=O)=O)ccc2OCC2CC2)c2cc(F)ccc2c1=O` [Example 90, 4-[2-(cyclopropylmethoxy)-5-methylsulfonylphenyl]-6-fluoro-2-methylisoquinolin-1-one], the IC50 in experiment [1] (Homo sapiens, HL-60) is under 500 nM; in experiment [2] (setting [3]), under 500 nM; against BRD4(BD1) (class symbols A/B/C), under 500 nM.

As for `Cn1cc(-c2cccc(S(N)(=O)=O)c2)c2cc(F)ccc2c1=O` [Example 48, 3-(6-fluoro-2-methyl-1-oxoisoquinolin-4-yl) benzenesulfonamide], the concentration for half-maximal inhibition (IC50) was 500 to 5000 nM in experiment [1]; 500 to 5000 nM in experiment [2] (Cell-MTS, class symbols A/B/C); 500 to 5000 nM against BRD4(BD1) (class symbols A/B/C).

Take `CCS(=O)(=O)c1ccc(O[C@H]2CC[C@H](O)CC2)c(-c2cn(C)c(=O)c3cc(F)ccc23)c1` [Example 189, 4-[5-ethylsulfonyl-2-(trans-4-hydroxycyclohexyl)oxyphenyl]-7-fluoro-2-methylisoquinolin-1-one]: the half-maximal inhibitory concentration (IC50) (in experiment [2] (setting [4]); at BRD4(BD1) (setting [5])) was under 500 nM throughout.

As for `Cn1cc(-c2ccc3c(c2)NC(=O)C3)c2ccccc2c1=O` [Example 20, 2-methyl-4-(2-oxo-1,3-dihydroindol-6-yl) isoquinolin-1-one], the IC50 in experiment [1] (Homo sapiens, HL-60) was under 500 nM; in experiment [2] (setting [3]) it was under 500 nM; on BRD4(BD1) (class symbols A/B/C), over 5000 nM.

Consider `CCCCc1cnc(NS(=O)(=O)CC)nc1-c1cc(C(C)C)c(=O)n(C)c1` [Example 512, N-[5-butyl-4-(1-methyl-6-oxo-5-propan-2-ylpyridin-3-yl)pyrimidin-2-yl] ethanesulfonamide], for which the concentration for half-maximal inhibition (IC50) (in experiment [2] (setting [6]); at BRD4(BD1) (setting [5])) was under 500 nM throughout.

For the molecule `CCNS(=O)(=O)c1cccc(-c2cn(C)c(=O)c3ccc(F)cc23)c1` [Example 49, N-ethyl-3-(6-fluoro-2-methyl-1-oxoisoquinolin-4-yl) benzenesulfonamide], the IC50 in experiment [1] lay within 500 to 5000 nM; in experiment [2] (Cell-MTS, class symbols A/B/C), 500 to 5000 nM.

Consider `CCS(=O)(=O)Nc1cc2c(c(-c3cc(C)c(=O)n(C)c3)c1)OC(C1CC1)C2` (stereo not drawn) [Example 496, N-[2-cyclopropyl-7-(1,5-dimethyl-6-oxopyridin-3-yl)-2,3-dihydro-1-benzofuran-5-yl]ethanesulfonamide], for which the IC50 (in experiment [2] (setting [6]); on BRD4(BD1) (setting [5])) was under 500 nM in each case.

Consider `CCC1Cc2cc(S(C)(=O)=O)cc(-c3cn(C)c(=O)c4ccccc34)c2O1` (stereo not drawn) [Example 494, 4-(2-ethyl-5-methylsulfonyl-2,3-dihydro-1-benzofuran-7-yl)-2-methylisoquinolin-1-one], for which the IC50 in experiment [2] (setting [6]) is 500 to 5000 nM; against BRD4(BD1) (setting [5]), under 500 nM.

In the case of `Cn1cc(-c2cc(S(C)(=O)=O)ccc2OCC2CC2)c2c(c1=O)CCC2` [Example 504, 4-[2-(cyclopropylmethoxy)-5-methylsulfonylphenyl]-2-methyl-6,7-dihydro-5H-cyclopenta[c]pyridin-1-one], the IC50 (in experiment [2] (setting [6]); at BRD4(BD1) (setting [5])) was under 500 nM in each case.

With `CCS(=O)(=O)c1ccc(OCC2CC2)c(-c2cc(OCC(F)(F)F)c(=O)n(C)c2)c1` [Example 288, 5-[2-(cyclopropylmethoxy)-5-ethylsulfonylphenyl]-1-methyl-3-(2,2,2-trifluoroethoxy)pyridin-2-one], the IC50 was 500 to 5000 nM in experiment [2] (setting [4]) and under 500 nM against BRD4(BD1) (setting [5]).

Take `Cn1cc(-c2nc(CS(C)(=O)=O)ncc2Oc2ccc(F)cc2F)c2ccccc2c1=O` [Example 148, 4-[5-(2,4-difluorophenoxy)-2-(methylsulfonylmethyl)pyrimidin-4-yl]-2-methylisoquinolin-1-one]: the IC50 is over 5000 nM in experiment [2] (setting [4]) and under 500 nM at BRD4(BD1) (setting [5]).

On to `CCCCc1cnc(NS(=O)(=O)CC)nc1-c1cc(C)c(=O)n(C(C)C)c1` [Example 511, N-[5-butyl-4-(5-methyl-6-oxo-1-propan-2-ylpyridin-3-yl)pyrimidin-2-yl] ethanesulfonamide], for which the IC50 (in experiment [2] (setting [6]); at BRD4(BD1) (setting [5])) was under 500 nM throughout.

For `Cn1cc(-c2cccc(S(N)(=O)=O)c2)c2ccc(F)cc2c1=O` [Example 61, 3-(7-fluoro-2-methhyl-1-oxoisoquinolin-4-yl) benzenesulfonamide], the IC50 in experiment [1] (Homo sapiens, HL-60) was in the range of 500 to 5000 nM; in experiment [2] (setting [3]) it was 500 to 5000 nM.

As to `CCS(=O)(=O)c1ccc(O[C@H]2CC[C@H](O)CC2)c(-c2cn(C)c(=O)c3ccc(F)cc23)c1` [Example 188, 4-[5-ethylsulfonyl-2-(trans-4-hydroxycyclohexyl)oxyphenyl]-6-fluoro-2-methylisoquinolin-1-one], the IC50 (in experiment [2] (setting [4]); against BRD4(BD1) (setting [5])) was under 500 nM each time.

With `[2H]C([2H])([2H])n1cc(-c2cc(S(=O)(=O)CC)ccc2OCC2CC2)c(C)cc1=O` [Example 457, 5-[2-(cyclopropylmethoxy)-5-ethylsulfonylphenyl]-1-(^2H3)methyl-4-methylpyridin-2-one], the IC50 (in experiment [2] (setting [6]); at BRD4(BD1) (setting [5])) was under 500 nM in each case.

With `CCS(=O)(=O)Nc1ncc(Oc2ccc(F)cc2F)c(-c2cc(C)c(=O)n(C(C)C)c2)n1` [Example 509, N-[5-(2,4-difluorophenoxy)-4-(5-methyl-6-oxo-1-propan-2-ylpyridin-3-yl)pyrimidin-2-yl]ethanesulfonamide], the IC50 (in experiment [2] (setting [6]); on BRD4(BD1) (setting [5])) was under 500 nM in each case.

At BRD4(BD1) (setting [5]), `Cn1cc(-c2cc(S(C)(=O)=O)ccc2CCC2CC2)c2ccccc2c1=O` [Example 319, 4-[2-(2-cyclopropylethyl)-5-methylsulfonylphenyl]-2-methylisoquinolin-1-one] gave an IC50 of under 500 nM.

As for `CCS(=O)(=O)Nc1cccc(-c2nn(C)c(=O)cc2C)c1` [Example 479, N-[3-(1,4-dimethyl-6-oxopyridazin-3-yl)phenyl]ethanesulfonamide], on BRD4(BD1) (setting [5]), the IC50 was over 5000 nM.

Take `CCNS(=O)(=O)c1cccc(-c2cn(C)c(=O)c3ccncc23)c1` [Example 124, N-ethyl-3-(2-methyl-1-oxo-2,6-naphthyridin-4-yl) benzenesulfonamide]: the IC50 against BRD4(BD1) (class symbols A/B/C) was in the range of 500 to 5000 nM.

As for `COCC1COc2c(cc(S(C)(=O)=O)cc2-c2cc(C)c(=O)n(C)c2)O1` (stereo not drawn) [Example 502, 5-[2-(methoxymethyl)-7-methylsulfonyl-2,3-dihydro-1,4-benzodioxin-5-yl]-1,3-dimethylpyridin-2-one], the IC50 at BRD4(BD1) (setting [5]) is under 500 nM.

As a reminder, the IC50 is the midpoint of a concentration-inhibition curve.
